Test results reported in the CheMixHub viscosity set.

Test: xn = mol fraction of the nth substance listed

CC1CCCCC1 + CC(C)CC(C)(C)C
viscosity [mPa·s], 101 kPa
Settings	298.15 K	303.15 K	308.15 K
x1 = 0.1032	–	0.462	–
x1 = 0.105	–	0.466	0.438
x1 = 0.201	–	0.478	–
x1 = 0.221	–	0.4798	–
x1 = 0.3024	0.522	0.492	0.462
x1 = 0.399	–	0.5062	–
x1 = 0.4039	0.539	0.508	0.476
x1 = 0.4974	–	0.524	–
x1 = 0.4998	0.556	0.523	0.491
x1 = 0.5998	–	0.5431	–
x1 = 0.6064	0.577	0.543	0.509
x1 = 0.6991	0.597	0.562	0.526
x1 = 0.7018	–	0.5656	–
x1 = 0.8004	0.62	0.583	0.546
x1 = 0.8012	–	0.5892	–
x1 = 0.8991	–	0.6154	–
x1 = 0.9007	0.648	0.608	0.568

CCOC(=O)[C@@H](O)[C@H](O)C(=O)OCC + CC(C)CCO
viscosity [mPa·s], 101 kPa
Settings	x1 = 0.1	x1 = 0.2	x1 = 0.3	x1 = 0.4001	x1 = 0.5	x1 = 0.6001	x1 = 0.6999	x1 = 0.7997	x1 = 0.8998
293.15 K	5.227	7.032	9.91	13.58	20.31	31.03	46.13	74.54	129.6
298.15 K	4.438	5.859	8.123	10.83	15.81	23.2	33.35	51.5	84.95
303.15 K	3.768	4.88	6.638	8.752	12.37	17.66	24.71	36.84	58.14
308.15 K	3.225	4.138	5.497	7.134	9.862	13.75	18.79	27.17	41.31
313.15 K	2.774	3.487	4.567	5.855	7.945	10.86	14.56	20.53	30.25
318.15 K	2.416	3.02	3.904	4.935	6.58	8.824	11.61	15.99	22.88
323.15 K	2.13	2.649	3.374	4.215	5.529	7.295	9.449	12.74	17.8

CCCCCl + CC(C)CO
viscosity [mPa·s], 101 kPa
Settings	x1 = 0.0951	x1 = 0.2057	x1 = 0.3038	x1 = 0.4102	x1 = 0.5035	x1 = 0.6121	x1 = 0.7033	x1 = 0.8022	x1 = 0.9043
298.15 K	2.41	1.677	1.261	0.9677	0.7931	0.6506	–	0.5	0.4513
313.15 K	1.576	1.152	0.9054	0.7239	0.6137	0.5199	0.4687	0.4153	0.3832

CCOC(=O)[C@@H](O)[C@H](O)C(=O)OCC + CC(C)CO
viscosity [mPa·s], 101 kPa
Settings	x1 = 0.1	x1 = 0.2	x1 = 0.3001	x1 = 0.3999	x1 = 0.5	x1 = 0.6001	x1 = 0.6989	x1 = 0.7998	x1 = 0.8994
293.15 K	5.103	7.263	10.49	15.86	24.25	34.35	50.55	88.25	140.9
298.15 K	4.28	5.98	8.485	12.38	18.34	25.34	36.11	59.79	91.12
303.15 K	3.601	4.928	6.848	9.831	14.09	19.07	26.5	42.09	62.16
308.15 K	3.052	4.111	5.611	7.889	11.06	14.71	19.99	30.63	43.93
313.15 K	2.607	3.444	4.609	6.39	8.797	11.53	15.38	22.88	31.96
318.15 K	2.249	2.956	3.912	5.322	7.201	9.298	12.19	17.64	24.09
323.15 K	1.973	2.567	3.358	4.497	5.991	7.637	9.865	13.94	18.67

CC1CCCCC1 + CC(C)O
viscosity [mPa·s], 100 kPa
Settings	x1 = 0.081	x1 = 0.1601	x1 = 0.2401	x1 = 0.35	x1 = 0.44	x1 = 0.5602	x1 = 0.65	x1 = 0.7401	x1 = 0.8501	x1 = 0.9403
293.15 K	1.88	1.47	1.17	0.89	0.78	0.72	0.73	0.75	0.77	0.76
298.15 K	1.65	1.33	1.08	0.87	0.76	0.71	0.7	0.7	–	0.71
303.15 K	–	1.18	0.98	0.81	0.73	0.7	0.69	0.68	0.68	0.67
308.15 K	1.26	1.05	0.89	0.74	0.67	0.64	0.63	0.63	0.64	0.62
313.15 K	1.1	0.92	0.79	0.65	0.6	0.58	0.57	0.58	0.59	0.6
318.15 K	0.97	0.82	0.7	0.6	0.55	0.54	0.54	0.55	0.56	0.55
323.15 K	0.84	0.69	0.58	0.49	0.46	0.46	0.47	0.49	0.51	0.52

CCCCCl + CC(C)O
298.15 K, 101 kPa
Settings	viscosity [mPa·s]
x2 = 0.1	0.438
x2 = 0.1661	0.468
x2 = 0.225	0.47
x2 = 0.2891	0.493
x2 = 0.35	0.522
x2 = 0.4295	0.579
x2 = 0.5105	0.642
x2 = 0.5479	0.675
x2 = 0.6603	0.809
x2 = 0.7645	1.044
x2 = 0.8538	1.338
x2 = 0.92	1.615

CCOC(=O)c1ccccc1 + CC(C)O
viscosity [mPa·s], 101 kPa
Settings	x1 = 0.056	x1 = 0.1177	x1 = 0.1862	x1 = 0.2624	x1 = 0.348	x1 = 0.4446	x1 = 0.546	x1 = 0.681	x1 = 0.8277
303.15 K	1.659	1.664	1.671	1.678	1.686	1.695	1.706	1.719	1.733
308.15 K	1.501	1.508	1.515	1.525	1.532	1.541	1.551	1.563	1.577
313.15 K	1.327	1.337	1.345	1.356	1.367	1.38	1.394	1.409	1.426
318.15 K	1.192	1.203	1.213	1.225	1.239	1.254	1.27	1.291	1.313
323.15 K	1.074	1.085	1.099	1.114	1.13	1.15	1.167	1.194	1.222

CCS(=O)CC + CCC#N
viscosity [mPa·s], 101 kPa
Settings	x1 = 0.0998	x1 = 0.2002	x1 = 0.2962	x1 = 0.3999	x1 = 0.4953	x1 = 0.6017	x1 = 0.6937	x1 = 0.7999	x1 = 0.8998
298.15 K	0.53	0.63	0.73	0.89	1.05	1.26	1.45	1.74	1.98
303.15 K	0.49	0.59	0.69	0.83	0.96	1.15	1.35	1.56	1.84
308.15 K	0.46	0.55	0.64	0.78	0.89	1.06	1.25	1.41	1.68
313.15 K	0.44	0.54	0.61	0.74	0.85	0.99	1.14	1.32	1.52
318.15 K	0.42	0.5	0.59	0.69	0.78	0.92	–	1.21	1.39
323.15 K	0.36	0.43	0.51	0.59	0.67	0.79	0.91	1.02	1.17

CCCCCN + CCC(=O)O
viscosity [mPa·s], 101.33 kPa
Settings	293.15 K	298.15 K	298.5 K	303.15 K	308.15 K	313.15 K	318.15 K	323.15 K
x2 = 0.1	1.62	1.53	–	1.42	1.4	1.32	1.24	–
x2 = 0.2	1.97	1.86	–	1.74	1.69	1.6	1.51	–
x2 = 0.3	13.7	11.78	–	10.12	8.82	7.77	6.87	–
x2 = 0.4	85.81	–	71.98	56.82	46.99	39.47	33.6	28.82
x2 = 0.5	707.8	510.2	–	386	296.3	226.2	178.3	–
x2 = 0.6	368.1	274.6	–	210	164.6	130.8	103.8	–
x2 = 0.7	75.4	60.4	–	48.75	40.4	33.8	28.4	–

CC1CCCCC1 + CCC(C)O
viscosity [mPa·s], 100 kPa
Settings	x1 = 0.0811	x1 = 0.16	x1 = 0.24	x1 = 0.35	x1 = 0.4401	x1 = 0.56	x1 = 0.6501	x1 = 0.7401	x1 = 0.8492	x1 = 0.94
293.15 K	2.84	2.24	1.78	1.36	1.15	0.99	0.95	0.92	0.87	0.79
298.15 K	2.4	1.91	1.53	1.17	–	0.88	0.84	0.81	0.79	0.74
303.15 K	2.02	1.63	1.31	1.02	0.88	0.79	0.76	0.74	0.73	0.69
308.15 K	1.72	1.42	1.18	0.95	0.83	0.74	0.71	0.69	0.67	0.64
313.15 K	1.48	1.23	1.04	0.85	0.76	0.69	0.67	0.65	0.63	0.6
318.15 K	1.27	1.07	0.91	0.76	0.69	0.64	0.62	0.61	0.59	0.56
323.15 K	1.11	0.94	0.81	0.69	0.63	0.59	0.58	0.58	0.56	0.53
